The values below come from a melting point compilation (Tetko et al.).

Broadly, the melting point is the temperature of the solid-liquid transition. Turning to `Nc1cccc(-n2cnnc2)c1`, the melting point was in the range of 199 to 201 °C.
Turning to `Cn1c(S)nnc1C1CC1`, the melting point is 180 to 182 °C.
The result for `O=C1CCc2c(Br)cccc21` reads 95 to 99 °C.
For `CCn1nc(C(=O)O)ccc1=O`, the melting point was 203 to 205 °C.
In turn, `CC(C)n1ncc2c(C(=O)O)cc(-c3ccco3)nc21` had a melting point of 275 to 277 °C.
The compound `CNS(=O)(=O)c1c[nH]c(=O)[nH]c1=O` gave a melting point of 279 to 281 °C.
Consider `CCNS(=O)(=O)c1ccc(F)c(C(=O)O)c1`, for which the melting point lay within 154 to 156 °C.
For the compound `COC(=O)CNC(=O)CCCl`, the melting point is 59 to 61 °C.
With `CC(C)OC(=O)N1CCC(C(=O)O)(C(F)(F)F)C1` (stereo not drawn), the melting point was in the range of 98 to 100 °C.
The result for `Cc1cc(N2CCCS2(=O)=O)ccc1Br` reads 131 to 133 °C; that for `O=C1CCc2cc(OCCCl)ccc2N1`, 150 to 152 °C; that for `C#Cc1c(F)cccc1F`, 34 to 36 °C.
For `Cc1ccc2nc3ccccc3c(Cl)c2c1` the value was 121 to 123 °C.
The result for `O=Cc1c[nH]nc1-c1ccc(Cl)cc1` reads 139 to 141 °C; that for `Cc1occc1-c1nnc(S)n1Cc1ccccc1`, 134 to 136 °C; that for `Cn1cc(C(=O)CBr)c2ccccc21`, 132 to 134 °C.
In the case of `COC(=O)Cn1cnc(C#N)n1`, the melting point lay in the range of 53 to 55 °C.
In the case of `Cc1ccc(C(=O)O)c(C)n1`, the melting point is 168 to 170 °C.
In turn, `Cn1ccnc1SCC(=O)O` came in with a melting point of 88 to 90 °C.
`COc1ccc(Br)cc1CBr`: the melting point lay in the range of 51 to 58 °C.
The result for `CC(C)n1cnc2cc(C(=O)O)ccc21` reads 216 to 218 °C; that for `COc1ccc(-c2cc(N)on2)c(OC)c1OC`, 161 to 163 °C; that for `NCc1ccc(-n2cnc3ccccc32)cc1`, 72 to 74 °C.
Take `S=C=Nc1cccc2ncccc12`: the melting point lay within 60 to 62 °C.
The compound `O=C(O)C=Cc1cn(-c2ccccc2)nc1-c1ccccc1` displayed a melting point of 207 to 209 °C.
`O=C(O)Cc1cnc2ccccc2c1` yielded a melting point of 201 to 203 °C.
For `c1cn(-c2cncnc2)cn1` the value was 129 to 131 °C; for `NC(=S)C(NC(=O)c1ccccc1)C1CC1` (stereo not drawn), 199 to 201 °C.
Compound `Cc1ccc(-c2cc(C(=O)O)c3ccccc3n2)cc1` came in with a melting point of 180 to 184 °C.
In turn, `NS(=O)(=O)c1ccccc1I` returned a melting point of 161 to 163 °C.
As for `COc1cc(N)ccc1N1CCCC1=O`, the melting point fell in the range of 126 to 128 °C.
Regarding `Sc1nnc(-c2ccco2)n1C1CCCCC1`, the melting point fell in the range of 134 to 136 °C.
For the compound `Cc1ccnc(NC2CCCCC2)c1`, the melting point was in the range of 75 to 77 °C.
Consider `O=C(O)c1csc(-c2cc3ccccc3o2)n1`, for which the melting point fell in the range of 242 to 244 °C.
Turning to `O=C(Nc1ccccc1)C1CCN(C(=O)CCl)CC1`, the melting point fell in the range of 143 to 145 °C.
Compound `O=C1CCC(C(F)(F)F)=NN1` displayed a melting point of 75 to 77 °C.
`Cc1cc(C(=O)O)cc(C)c1OCc1cccnc1`: the melting point lay within 182 to 184 °C.
Compound `O=C(O)c1ccc(OCc2cscn2)cc1` had a melting point of 191 to 193 °C.
Turning to `O=S(=O)(c1ccc2oc(S)nc2c1)N1CCOCC1`, the melting point is 251 to 253 °C.
Compound `CN(C)c1nc2sc(C(=O)O)cc2s1` registered a melting point of 205 to 207 °C.
The result for `COc1nc(N(C)C)sc1C=O` reads 69 to 71 °C.
Regarding `Nc1nnc(CO)s1`, the melting point was 169 to 171 °C.
For `O=c1c(C(O)(O)C(F)(F)F)coc2ccc(Cl)cc12` the value was 114 to 116 °C; for `O=C(O)CCc1cccc(F)c1F`, 106 to 108 °C.
Compound `CC(O)c1ccc(N(C)Cc2ccccn2)c(F)c1` (stereo not drawn) had a melting point of 73 to 75 °C.
In the case of `CC(=O)CC(=O)Nc1ccc(F)c(F)c1`, the melting point was in the range of 92 to 94 °C.
`COc1ccc(C(N)=NO)cc1OC` gave a melting point of 164 to 166 °C.
`O=S(CCCl)c1cc(Cl)ccc1Cl` (stereo not drawn) had a melting point of 68 to 70 °C.
The compound `CC(C)COc1ccc(C2(C(=O)O)CCC2)cc1` came in with a melting point of 105 to 107 °C.
`O=C(Nc1ccc(O)cc1)c1ccsc1`: the melting point is 207 to 209 °C.
Consider `Cc1cc(C)c(S(=O)(=O)N2CCC(C(=O)O)CC2)c(C)c1`, for which the melting point fell in the range of 181 to 183 °C.
As for `CCC(C(=O)O)c1cccc(C(F)(F)F)c1` (stereo not drawn), the melting point lay within 41 to 43 °C.
The result for `O=C(Cc1ccc(Cl)cc1)c1ccccc1` reads 131 to 135 °C.
For `CC(C)OCCS(=O)(=O)NCC(=O)O`, the melting point lay within 63 to 65 °C.
For `CN(c1ccccc1)S(=O)(=O)c1cccc(NC(=O)CCl)c1`, the melting point was 98 to 100 °C.
The compound `O=C1NCCNC1(O)C(F)(F)F` (stereo not drawn) had a melting point of 144 to 146 °C.
Turning to `Nc1ccnn1CC1CCCCC1`, the melting point is 59 to 61 °C.
`NNS(=O)(=O)c1ccc(Cl)c([N+](=O)[O-])c1`: the melting point lay in the range of 126 to 128 °C.
Consider `OC(Cc1ccc(Cl)cc1)C(F)(F)F` (stereo not drawn), for which the melting point lay in the range of 66 to 68 °C.
The compound `C/C(=N/O)c1ccc2c(c1)CCO2` yielded a melting point of 122 to 124 °C.
Turning to `O=S1(=O)CCC(CO)CC1`, the melting point lay within 86 to 88 °C.
`Nc1c(F)ccc(Br)c1C(=O)O` registered a melting point of 128 to 130 °C.
With `COc1ccc(S(=O)(=O)N(C)C)cc1NC(=O)CCl`, the melting point fell in the range of 152 to 154 °C.
As for `Nc1cc(CC2CCCCC2)no1`, the melting point was in the range of 106 to 108 °C.
For `CC1Oc2ccccc2NC1=O` (stereo not drawn) the value was 142 to 144 °C.
The result for `COC(C)(C(=O)O)c1ccccc1` (stereo not drawn) reads 44 to 46 °C; that for `NNC(=S)NCC(F)(F)F`, 158 to 160 °C; that for `Cc1ccc(N2CCC(Br)C2=O)cc1` (stereo not drawn), 83 to 85 °C.
Consider `Cc1cccc(C)c1NC(=O)CCCCl`, for which the melting point was 104 to 106 °C.
As for `O=C(O)C1CCCCN1C(=O)C1CCCO1` (stereo not drawn), the melting point was 116 to 118 °C.
For the compound `CC(Cl)C(=O)Nc1ccccc1C(F)(F)F` (stereo not drawn), the melting point fell in the range of 92 to 94 °C.
Compound `Clc1cccc(-c2ccccn2)n1` returned a melting point of 62 to 64 °C.
`Nc1cc(S(=O)(=O)N2CCOCC2)ccc1Cl` displayed a melting point of 177 to 179 °C.
Compound `NNC(=O)c1ccc(Cl)c(S(N)(=O)=O)c1` yielded a melting point of 212 to 214 °C.
Compound `CC(C(=O)O)N1C(=O)C2CC=CCC2C1=O` (stereo not drawn) came in with a melting point of 123 to 125 °C.
With `Cc1cc(S(N)(=O)=O)cc([N+](=O)[O-])c1C`, the melting point fell in the range of 180 to 182 °C.
For `NNC(=O)Cc1ccc2ccccc2c1` the value was 189 to 191 °C; for `CN1CCN(CCNCc2ccc(Br)cc2F)CC1`, 45 to 47 °C.
With `O=C(O)c1cccnc1Oc1ccc(Cl)cc1Cl`, the melting point lay in the range of 191 to 193 °C.
The result for `O=C(O)c1nn(-c2ccc(F)cc2)c2c1CCCC2` reads 209 to 211 °C; that for `O=C(O)C1CCCN1S(=O)(=O)c1cccs1` (stereo not drawn), 99 to 101 °C.
The compound `Cc1ccc(C(=O)C(=O)O)cc1` registered a melting point of 176 to 178 °C.
For `NNc1ncc(Cl)cc1Cl` the value was 179 to 181 °C.
The result for `NNC(=O)c1cc2sccc2cn1` reads 204 to 206 °C; that for `O=C(Nc1cccc(C(=O)O)c1)NC1CC1`, 236 to 238 °C; that for `O=C(O)C=Cc1ccc(OC(F)F)cc1`, 182 to 184 °C.
`NS(=O)(=O)c1cc(C(F)(F)F)ccc1F` gave a melting point of 127 to 129 °C.
As to `CCS(=O)(=O)c1ccc(Cl)cc1C(=O)O`, the melting point lay within 104 to 106 °C.
